Several values for one entry are separate records, joined by “and”; a condition that tells them apart may be missing. Identical values can stand only once. One block for each compound: values may come before it. Activity calls are given as the source filed them. No cut-off for these calls is given here.
Columns and labels:
[1] = biological target: T1, Purine nucleoside phosphorylase (Bos taurus) (UniProt P55859); settings: Spleen
T1 sequence (whole entry): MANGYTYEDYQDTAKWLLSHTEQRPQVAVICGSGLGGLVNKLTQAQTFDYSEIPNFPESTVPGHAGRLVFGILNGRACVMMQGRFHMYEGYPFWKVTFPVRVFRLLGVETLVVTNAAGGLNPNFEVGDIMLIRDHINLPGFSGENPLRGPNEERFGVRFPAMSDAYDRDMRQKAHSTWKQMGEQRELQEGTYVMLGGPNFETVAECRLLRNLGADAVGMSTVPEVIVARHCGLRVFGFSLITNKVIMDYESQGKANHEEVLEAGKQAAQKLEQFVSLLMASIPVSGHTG

[2] = biological target: T2, Purine nucleoside phosphorylase (Homo sapiens, UniProt P00491); assay: Inhibition of human erythrocyte PNP assessed as inhibition of 25 uM 7-methylguanosine phosphorolysis by spectrophotometry in presence of 1 mM inorganic phosphate
T2 sequence (P00491 whole entry): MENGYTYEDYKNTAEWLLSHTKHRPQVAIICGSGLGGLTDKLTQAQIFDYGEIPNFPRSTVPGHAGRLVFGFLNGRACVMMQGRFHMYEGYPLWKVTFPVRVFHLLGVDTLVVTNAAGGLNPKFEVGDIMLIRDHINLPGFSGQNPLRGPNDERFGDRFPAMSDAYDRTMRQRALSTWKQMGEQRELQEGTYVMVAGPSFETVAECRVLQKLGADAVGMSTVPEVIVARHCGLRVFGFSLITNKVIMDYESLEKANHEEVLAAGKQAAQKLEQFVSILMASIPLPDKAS

[3] = biological target: T3, Purine nucleoside phosphorylase (Homo sapiens) (UniProt P00491); settings: 4.99 to 18.71 uM
T3 sequence (whole entry): T2 sequence (P00491 whole entry)

[4] = Dissociation constant, pKa at 2 mg by spectrophotometry
[5] = biological target: T4, Purine nucleoside phosphorylase (Bos taurus, UniProt P55859); assay: Inhibition of calf spleen PNP assessed as inhibition of 7-methylguanosine phosphorolysis after 50 mins by spectrophotometry in presence of 1 mM inorganic phosphate; settings: read-out: Ki(app)
T4 sequence (P55859 whole entry): T1 sequence (whole entry)

[6] = biological target: T2, Purine nucleoside phosphorylase; assay: Inhibition of human erythrocyte PNP assessed as inhibition of 7-methylguanosine phosphorolysis after 50 mins by spectrophotometry in presence of 1 mM inorganic phosphate; settings: read-out: Ki(app)
[7] = biological target: T1, Purine nucleoside phosphorylase (Bos taurus); settings: Spleen; remark: listed apart in the source
[8] = biological target: T4, Purine nucleoside phosphorylase

Kieq [1]: 0.72 nM
SMILES: Nc1nc(O)c2ncn(CCCCC(F)(F)P(=O)(O)O)c2n1

pKa [4]: 5.1
SMILES: Cn1c(N)nc2cc[nH]c2c1=O

Ki [5]: 6.1 nM and 0.94 nM | Ki [6]: 5.6 nM
SMILES: Nc1nc2c(CCCCCCCC(F)(F)P(=O)(O)O)c[nH]c2c(=O)[nH]1

pKa [4]: 10.6
SMILES: Cn1c(N)nc2ccn(C)c2c1=O

Further lines, the compound ahead of its results:

SMILES: CCOP(=O)(OCC)C(F)(F)CCCc1c[nH]c2c(=O)[nH]c(N)nc12
IC50 [2]: 170 nM

SMILES: Nc1nc2c(CCCCC(F)(F)P(=O)(O)O)c[nH]c2c(=O)[nH]1
Kieq [1]: 0.085 nM | inhibition [3]: Active

SMILES: O=c1[nH]cnc2c([C@@H]3N[C@H](CO)[C@@H](O)[C@H]3O)c[nH]c12 [FORODESINE]
Kieq [7]: 0.023 nM | Ki [8]: 41 nM
